Laboratory results reported in patent US9776972B2, “Pyrazole derivatives as arginine methyltransferase inhibitors and uses thereof” (priority 2013, dated 2017).

Molecular target: human PRMT3 (Homo sapiens, UniProt O60678)
Assay: PRMT3 Biochemical Assay (3H-SAM Flashplate, peptide substrate)
Settings: single experiment or average of multiple experiments

Chain of human PRMT3 (O60678 with tags, fused parts or gaps): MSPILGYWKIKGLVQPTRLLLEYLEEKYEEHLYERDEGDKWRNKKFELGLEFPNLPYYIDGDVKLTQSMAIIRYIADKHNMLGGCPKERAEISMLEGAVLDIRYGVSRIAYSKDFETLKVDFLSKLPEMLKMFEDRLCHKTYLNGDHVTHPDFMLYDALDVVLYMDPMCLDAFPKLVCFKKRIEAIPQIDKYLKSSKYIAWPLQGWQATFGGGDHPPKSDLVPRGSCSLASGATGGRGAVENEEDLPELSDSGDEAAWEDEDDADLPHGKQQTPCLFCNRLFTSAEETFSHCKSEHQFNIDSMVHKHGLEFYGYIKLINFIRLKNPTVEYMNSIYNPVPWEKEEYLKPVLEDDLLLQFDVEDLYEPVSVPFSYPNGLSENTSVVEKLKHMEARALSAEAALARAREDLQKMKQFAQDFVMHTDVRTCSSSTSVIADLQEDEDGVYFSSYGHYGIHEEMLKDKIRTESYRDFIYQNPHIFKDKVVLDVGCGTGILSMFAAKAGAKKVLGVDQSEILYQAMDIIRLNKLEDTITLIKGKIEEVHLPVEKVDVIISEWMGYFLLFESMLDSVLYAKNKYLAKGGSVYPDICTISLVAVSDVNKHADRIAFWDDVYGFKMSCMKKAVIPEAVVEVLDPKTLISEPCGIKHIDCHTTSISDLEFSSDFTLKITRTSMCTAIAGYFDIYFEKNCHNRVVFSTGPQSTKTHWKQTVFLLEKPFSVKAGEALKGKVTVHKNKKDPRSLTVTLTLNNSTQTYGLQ

With `CNCCN(C)Cc1c[nH]nc1-c1ccc(F)cc1` [Compound 2, N^1-((3-(4-fluorophenyl)-1H-pyrazol-4-yl)methyl)-N^1,N^2-dimethylethane-1,2-diamine] the IC50 was 4.48 µM.
`CCCc1ccc(-c2n[nH]cc2CN(C)CCNC)cc1` [Compound 20] showed an IC50 of 3.54 µM.
`CNCCN(C)Cc1c[nH]nc1-c1cccc([N+](=O)[O-])c1` [Compound 21] showed an IC50 of 2.3 µM.
In the case of `CNCCN(C)Cc1c[nH]nc1-c1ccc(CO)cc1` [Compound 28], the IC50 is reported as 0.202 µM.
Molecule `CNCCN(C)Cc1c[nH]nc1-c1ccc(N)cc1` [Compound 33] has an IC50 of 1.89 µM.
For `CNCCN(C)Cc1c[nH]nc1-c1ccc(Oc2ccccc2)cc1` [Compound 37], the IC50 was 0.25 µM.
`CNCCN(C)Cc1c[nH]nc1-c1ccc(C(=O)c2ccccc2)cc1` [Compound 45] showed an IC50 of 5.53 µM.
With `CNCCN(C)Cc1c[nH]nc1-c1ccc(F)cc1F` [Compound 49] the IC50 was 4.43 µM.
`CNCCN(C)Cc1c[nH]nc1-c1ccc(F)c(F)c1` [Compound 51] showed an IC50 of 5.01 µM.
`CNCCN(C)Cc1c[nH]nc1-c1ccc(OC)c(F)c1` [Compound 52] showed an IC50 of 5.25 µM.
`CNCCN(C)Cc1c[nH]nc1-c1cccc2ccccc12` [Compound 57] was tested, and the IC50 was 3.35 µM.
Molecule `CNCCN(C)Cc1c[nH]nc1-c1ccc2ccccc2c1` [Compound 58] has an IC50 of 3.16 µM.
In the case of `CCN(CCN)Cc1c[nH]nc1-c1ccc(F)cc1` [Compound 62], the IC50 is reported as 4.13 µM.
In the case of `CN(CCN)Cc1c[nH]nc1-c1ccc(C#N)cc1` [Compound 68], the IC50 is reported as 4.36 µM.
